# Patent publication US11332716B2, “Methods and compositions for producing pancreatic beta cells” (The Regents of the University of California, priority 2015, dated 2022)
# T1: Flt3 (Homo sapiens, UniProt P36888)
# T1 sequence (P36888 27-993): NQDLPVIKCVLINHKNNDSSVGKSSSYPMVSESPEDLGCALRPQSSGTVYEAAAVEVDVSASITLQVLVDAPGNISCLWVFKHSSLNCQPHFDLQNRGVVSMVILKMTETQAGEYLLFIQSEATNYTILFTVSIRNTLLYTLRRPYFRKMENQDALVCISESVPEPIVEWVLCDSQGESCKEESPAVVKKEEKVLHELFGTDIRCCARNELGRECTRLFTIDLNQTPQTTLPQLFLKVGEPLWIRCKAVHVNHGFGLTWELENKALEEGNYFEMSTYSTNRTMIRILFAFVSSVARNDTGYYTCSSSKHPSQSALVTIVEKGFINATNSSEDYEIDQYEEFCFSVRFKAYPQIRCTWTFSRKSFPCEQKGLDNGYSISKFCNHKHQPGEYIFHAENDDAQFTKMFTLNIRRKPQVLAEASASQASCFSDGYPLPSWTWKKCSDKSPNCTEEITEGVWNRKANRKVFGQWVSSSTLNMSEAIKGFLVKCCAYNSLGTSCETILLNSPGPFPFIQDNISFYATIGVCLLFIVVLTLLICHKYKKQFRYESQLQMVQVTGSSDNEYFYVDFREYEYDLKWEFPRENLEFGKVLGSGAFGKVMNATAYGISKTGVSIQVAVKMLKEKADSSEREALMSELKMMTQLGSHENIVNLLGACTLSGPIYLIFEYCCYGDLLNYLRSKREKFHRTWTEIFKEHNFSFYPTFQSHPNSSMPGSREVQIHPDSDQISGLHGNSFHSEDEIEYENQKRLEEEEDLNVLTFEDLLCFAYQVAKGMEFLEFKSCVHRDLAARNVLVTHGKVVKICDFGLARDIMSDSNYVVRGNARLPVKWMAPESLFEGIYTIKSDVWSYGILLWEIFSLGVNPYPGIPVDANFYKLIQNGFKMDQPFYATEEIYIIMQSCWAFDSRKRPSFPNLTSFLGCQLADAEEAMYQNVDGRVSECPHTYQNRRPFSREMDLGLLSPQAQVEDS
# T2: Axl (Homo sapiens, UniProt P30530)
# T2 sequence (P30530 26-894): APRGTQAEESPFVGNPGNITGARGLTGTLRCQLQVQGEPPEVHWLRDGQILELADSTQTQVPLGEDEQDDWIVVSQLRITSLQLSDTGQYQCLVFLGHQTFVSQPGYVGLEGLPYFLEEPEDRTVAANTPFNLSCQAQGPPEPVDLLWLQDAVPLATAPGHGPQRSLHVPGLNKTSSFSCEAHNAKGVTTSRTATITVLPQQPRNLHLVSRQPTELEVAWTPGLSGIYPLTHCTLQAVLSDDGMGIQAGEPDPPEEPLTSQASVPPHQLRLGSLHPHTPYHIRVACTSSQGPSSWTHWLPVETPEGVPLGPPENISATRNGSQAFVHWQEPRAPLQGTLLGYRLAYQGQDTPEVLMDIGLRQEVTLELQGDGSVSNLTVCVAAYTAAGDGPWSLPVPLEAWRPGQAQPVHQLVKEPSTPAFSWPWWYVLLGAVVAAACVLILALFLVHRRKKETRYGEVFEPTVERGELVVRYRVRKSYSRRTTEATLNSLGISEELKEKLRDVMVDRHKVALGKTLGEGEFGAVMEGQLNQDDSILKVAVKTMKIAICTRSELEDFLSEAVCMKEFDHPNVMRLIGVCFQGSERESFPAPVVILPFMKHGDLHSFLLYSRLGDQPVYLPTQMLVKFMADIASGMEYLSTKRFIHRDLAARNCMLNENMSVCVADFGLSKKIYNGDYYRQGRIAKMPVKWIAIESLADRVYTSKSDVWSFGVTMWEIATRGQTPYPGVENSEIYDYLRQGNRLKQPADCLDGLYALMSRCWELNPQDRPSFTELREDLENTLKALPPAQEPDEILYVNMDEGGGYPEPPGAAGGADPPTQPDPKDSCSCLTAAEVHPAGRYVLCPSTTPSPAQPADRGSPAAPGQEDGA
# B1: Noggin: the BMP inhibitor Noggin (protein, UniProt Q13253 28-232, looked up)
# Noggin: QHYLHIRPAPSDNLPLVDLIEHPDPIFDPKEKDLNETLLRSLLGGHYDPGFMATSPPEDRPGGGGGAAGGAEDLAELDQLLRQRPSGAMPSEIKGLEFSEGLAQGKKQRLSKKLRRKLQMWLWSQTFCPVLYAWNDLGSRFWPRYVKVGSCFSKRSCSVPEGMVCKPSKSVHLTVLRWRCQRRGGQRCGWIPIQYPIISECKCSC
# Legend:
# ALK = ALK (Homo sapiens, UniProt Q9UM73); details: at 1 nM; cited from earlier work
# Flt3 = target: T1, Flt3; details: at 1 nM; cited from earlier work
# LTK = LTK (Homo sapiens, UniProt P29376); details: at 1 nM; cited from earlier work
# Axl = target: T2, Axl; details: at 1 nM; cited from earlier work
# [1] = system: pancreatic endodermal progenitor (cPE) cells; assay: Protocol 2 maturation of cPE cells into cPB cells (INSULIN mRNA, C-peptide cells)
# [2] = system: MEL1 INS GFP/W hESC spheres; assay: hESC suspension differentiation, qPCR of NGN3 and NKX2.2 at day 8; type: cell-based, human; details: compared to RCN condition / during RCN or R treatment
# Experimental: FIGS. 16A-16D. Published protocols result in precocious endocrine differentiation by NEUROG3 activation. FIGS. 16A-C: Analysis of key pancreatic progenitor markers in clusters differentiated as outlined in FIG. 15A. R=Retinoic acid, C=Cyclopamine, N=Noggin, E=Epidermal growth factor, K=Keratinocyte growth factor, T=TBP, and A=ALK inhibitor. Data shown are representative of two independent experiments. FIG. 16A: PDX1, INS, GCG, NEUROG3, and NKX6.1 protein expression was assessed by whole mount staining of differentiated clusters at indicated time points. Note precocious expression of the endocrine marker NEUROG3 in the absence of NKX6.1 protein at days 6-9. FIGS. 16B and 16C: Flow cytometric quantification of PDX1^+ (orange gate), PDX1^+/NKX6.1^+ (blue gate), INS^+/NKX6.1^+ (green gate), and INS^+/NKX6.1^− (red gate) cells at indicated time points. […]
# Total RNA was isolated with TRIZOL (Sigma) or micro/mini RNAeasy kit (Qiagen) and reverse transcribed using the iScript cDNA Kit (Bio-Rad) according to manufacturer's instructions. qPCR analysis was performed on an ABI 7900 HT Fast Real-Time PCR System (Applied Biosystems) and CFX Connect Real Time System (Biorad) using standard protocols. […] P-values were calculated using a two-tailed student's t-test. […]
# [3] = system: pancreatic endodermal progenitor cells (cPE cells); assay: Maturation of cPE cells into C-peptide positive cells, chemical screen; details: added individually to basal pancreatic differentiation media
# [4] = system: MEL1 INS GFP/W hESC spheres; assay: hESC suspension differentiation, flow cytometry of PDX1 and NKX6.1; type: cell-based, human; details: alone, conditions 2 and 3; day 9.5
# From the text: Treatments consisted of combinations of Cyclopamine (C), Noggin (N), and retinoic acid (R) during days 6-8, followed by subdivision of each condition into three treatment groups during day 9-9.5. Group 1) continuation of day 6-8 treatment; Group 2) treatment with EGF and KGF (EK); Group 3) treatment with EGF, KGF, and Noggin (EKN). […] Data shown are representatives of results obtained in two independent experiments. […] FIG. 17B: Quantification of PDX1 (orange gate) and NKX6.1 (blue gate) protein expressing cells in individual conditions after 9.5 days of differentiation.
# Suspension-based differentiations were carried out as follows. Briefly, confluent cultures were dissociated into single cell suspension by incubation with TrypLE (Gibco). […] To induce definitive endoderm differentiation, aggregates were collected 24 hours later in a 50 ml falcon tube, allowed to settle by gravity, washed once with PBS and re-suspended in d1 media (RPMI (Gibco) containing 0.2% FBS, 1:5000 ITS (Gibco), 100 ng/ml Activin A, and 50 ng/ml WNT3a (R&D systems)). Clusters from 3 wells were combined into 2 wells at this point and distributed into fresh low-attachment plates in 5.5 ml d1 media. Media thereafter was changed daily, by removing either 4.5 ml media (at the end of d1) or 5.5 ml media the following days and adding back 5.5 ml fresh media until day 9. After day 9, only 5 ml of media was removed and added daily.
# Briefly, spheres were collected and allowed to settle by gravity. Clusters were washed once in PBS and dissociated by gentle pipetting after 12-15 minutes incubation in Accumax (Innovative Cell Technologies). For sorting, cell suspensions were filtered and re-suspended in FACS buffer consisting of phosphate-buffered saline (PBS) (UCSF cell culture facility) containing 2 mM EDTA (Ambion) and 1% BSA (Sigma). Dead cells were excluded by DAPI (Sigma) staining Cell sorting was performed on a FACS Aria II (BD Bioscience). […]
# [5] = system: MEL1 INS GFP/W hESC spheres; assay: hESC suspension differentiation, NEUROG3 immunofluorescence; type: cell-based, human; details: days 6-9.5
# Experimental: Undifferentiated MEL1 INS^GFP/W reporter cells (Micallef et al, 2012) were maintained on mouse embryo fibroblast feeder layers (Millipore) in hESC media as described (Guo et al, 2013b). Suspension-based differentiations were carried out as follows. Briefly, confluent cultures were dissociated into single cell suspension by incubation with TrypLE (Gibco). Cells were counted and each well of 6-well low-adherence plates were seeded with 5.5×10^6 cells in 5.5 ml hES media supplemented with 10 ng/ml Activin A (R&D systems) and 10 ng/ml HeregulinB1 (Peprotech). Plates were placed on an orbital shaker at 100 rpm to induce sphere formation, as described (Schulz et al, 2012). To induce definitive endoderm differentiation, aggregates were collected 24 hours later in a 50 ml falcon tube, allowed to settle by gravity, washed once with PBS and re-suspended in d1 media (RPMI (Gibco) containing 0.2% FBS, 1:5000 ITS (Gibco), 100 ng/ml Activin A, and 50 ng/ml WNT3a (R&D systems)). Clusters from 3 wells were combined into 2 wells at this point and distributed into fresh low-attachment plates in 5.5 ml d1 media. Media thereafter was changed daily, by removing either 4.5 ml media (at the end of d1) or 5.5 ml media the following days and adding back 5.5 ml fresh media until day 9. After day 9, only 5 ml of media was removed and added daily. […]
# LTK, sequence (P29376 17-864, species assumed): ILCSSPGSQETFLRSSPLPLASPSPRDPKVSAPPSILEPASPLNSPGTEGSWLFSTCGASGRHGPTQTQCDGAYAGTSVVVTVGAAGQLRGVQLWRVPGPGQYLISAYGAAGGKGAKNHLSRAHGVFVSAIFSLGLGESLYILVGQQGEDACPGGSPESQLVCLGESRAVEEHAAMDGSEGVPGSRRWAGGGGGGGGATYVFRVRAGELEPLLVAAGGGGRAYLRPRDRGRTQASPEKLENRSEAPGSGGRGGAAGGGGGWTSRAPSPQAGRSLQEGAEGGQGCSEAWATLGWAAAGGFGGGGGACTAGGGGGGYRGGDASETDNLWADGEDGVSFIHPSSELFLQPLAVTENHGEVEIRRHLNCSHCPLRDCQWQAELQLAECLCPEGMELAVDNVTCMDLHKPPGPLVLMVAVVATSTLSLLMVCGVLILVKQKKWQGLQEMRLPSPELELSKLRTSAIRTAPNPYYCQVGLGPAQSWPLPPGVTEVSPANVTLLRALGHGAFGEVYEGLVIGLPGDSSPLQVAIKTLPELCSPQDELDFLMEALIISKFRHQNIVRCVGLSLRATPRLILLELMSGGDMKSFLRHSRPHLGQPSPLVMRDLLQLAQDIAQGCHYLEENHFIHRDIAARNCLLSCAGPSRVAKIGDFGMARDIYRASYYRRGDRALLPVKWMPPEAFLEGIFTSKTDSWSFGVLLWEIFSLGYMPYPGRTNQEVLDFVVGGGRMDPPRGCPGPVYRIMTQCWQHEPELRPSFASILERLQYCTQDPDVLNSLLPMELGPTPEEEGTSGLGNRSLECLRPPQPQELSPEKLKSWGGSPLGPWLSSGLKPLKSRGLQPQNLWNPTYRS
# ALK, sequence (Q9UM73 19-1620, species assumed): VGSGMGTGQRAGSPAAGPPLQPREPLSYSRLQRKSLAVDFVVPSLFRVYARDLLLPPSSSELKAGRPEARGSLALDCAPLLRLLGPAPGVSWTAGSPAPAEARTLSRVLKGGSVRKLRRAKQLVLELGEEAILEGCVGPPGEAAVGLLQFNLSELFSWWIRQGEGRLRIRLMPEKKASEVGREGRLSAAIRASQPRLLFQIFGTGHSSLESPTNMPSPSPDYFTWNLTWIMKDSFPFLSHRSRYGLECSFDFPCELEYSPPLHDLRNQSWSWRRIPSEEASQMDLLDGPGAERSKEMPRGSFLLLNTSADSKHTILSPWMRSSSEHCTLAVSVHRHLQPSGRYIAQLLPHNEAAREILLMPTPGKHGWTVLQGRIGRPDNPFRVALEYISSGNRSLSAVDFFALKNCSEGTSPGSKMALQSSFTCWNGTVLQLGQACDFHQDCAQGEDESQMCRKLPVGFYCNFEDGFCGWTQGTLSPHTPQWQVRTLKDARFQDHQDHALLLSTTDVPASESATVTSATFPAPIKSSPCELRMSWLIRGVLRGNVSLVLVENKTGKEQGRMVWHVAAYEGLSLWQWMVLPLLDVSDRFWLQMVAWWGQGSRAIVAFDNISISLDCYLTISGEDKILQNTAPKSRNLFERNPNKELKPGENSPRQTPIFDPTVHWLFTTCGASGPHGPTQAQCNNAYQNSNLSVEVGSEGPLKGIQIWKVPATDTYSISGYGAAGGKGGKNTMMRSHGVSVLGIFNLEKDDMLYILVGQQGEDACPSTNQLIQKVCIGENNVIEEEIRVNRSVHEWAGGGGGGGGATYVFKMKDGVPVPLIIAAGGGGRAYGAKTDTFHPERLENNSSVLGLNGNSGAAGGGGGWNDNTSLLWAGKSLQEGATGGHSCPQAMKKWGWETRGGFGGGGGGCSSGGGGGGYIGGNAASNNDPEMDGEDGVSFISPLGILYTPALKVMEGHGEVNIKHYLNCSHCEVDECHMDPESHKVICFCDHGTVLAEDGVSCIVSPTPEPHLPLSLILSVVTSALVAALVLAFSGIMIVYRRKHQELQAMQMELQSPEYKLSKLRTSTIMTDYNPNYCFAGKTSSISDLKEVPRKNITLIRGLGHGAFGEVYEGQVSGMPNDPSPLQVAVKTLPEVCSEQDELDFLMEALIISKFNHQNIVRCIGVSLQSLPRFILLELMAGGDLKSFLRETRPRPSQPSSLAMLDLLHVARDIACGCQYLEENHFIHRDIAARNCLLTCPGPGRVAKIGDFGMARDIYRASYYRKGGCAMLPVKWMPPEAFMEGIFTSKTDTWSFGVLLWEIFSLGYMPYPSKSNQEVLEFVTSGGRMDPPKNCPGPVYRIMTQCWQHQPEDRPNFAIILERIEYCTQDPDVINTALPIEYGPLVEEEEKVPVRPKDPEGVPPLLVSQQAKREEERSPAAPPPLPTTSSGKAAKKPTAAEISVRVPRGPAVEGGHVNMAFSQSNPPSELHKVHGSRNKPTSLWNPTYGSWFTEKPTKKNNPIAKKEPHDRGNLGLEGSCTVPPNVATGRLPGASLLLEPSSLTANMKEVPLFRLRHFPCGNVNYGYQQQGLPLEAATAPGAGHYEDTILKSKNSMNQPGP
molecule,measurement,setting,value
CCc1nc(C(N)=O)c(Nc2ccc(N3CCC(N4CCN(C)CC4)CC3)c(OC)c2)nc1NC1CCOCC1 [ASP2215],inhibition of ALK,ALK,over 50%
same,inhibition of FLT3,Flt3,over 50%
same,inhibition of LTK,LTK,over 50%
same,inhibition of AXL,Axl,over 50%
O=C1O[C@H]([C@@H](O)CO)C(O)=C1O [Vitamin C],number of C-peptide positive cells co-expressing PDX1 and NKX6.1,[1],increased
same,expression of the INSULIN gene (mRNA),"[1]; day 21, compared to DMSO controls",promoted expression
same,NEUROG3 (NGN3) and NKX2.2 mRNA transcripts,[2],did not significantly lower
same,"percentage of C-peptide positive cells, individual supplementation",[3],effective in increasing
B1,generation of PDX1+ cells over base media alone,[4],did not result in enhanced generation
same,NEUROG3 expression (endocrine differentiation),[5],noted only when spheres had been exposed to N
